Measured values: patent publication US20240309018A1, “THIAZOLE-LACTAM-SPIROHETEROCYCLIC COMPOUNDS AND APPLICATIONS THEREOF” (D3 BIO (WUXI) CO., LTD, priority 2021, published 2024)

Legend:
hERG potassium channel = hERG potassium channel (Homo sapiens (Human), UniProt Q12809); assay: hERG assay (automated patch-clamp, CHO-hERG cells); format: cell-based; details: Qpatch, highest assayed concentration 40 μM
Protocol: A fully automated patch-clamp method was used to assay the effect of the compound on hERG potassium channel (human Ether-a-go-go Related Gene potassium channel) current.
CHO-hERG cells were cultured in a 175 cm^2 culture flask. When cells grew to a density of 60˜80%, the culture medium was removed. Cells were washed once with 7 mL of PBS (Phosphate Buffered Saline), and then 3 mL of Detachin was added for digestion. After the digestion was completed, 7 mL of culture medium was added for neutralization, and then the mixture was centrifuged. The supernatant was aspirated, and then 5 mL of culture medium was added to resuspend the cells and ensure that the cell density was 2˜5×10^6/mL.
Extracellular solution formulation (mM): 140 NaCl, 5 KCl, 1 CaCl2), 1.25 MgCl2, 10 HEPES and 10 Glucose: the formulation was adjusted to pH of 7.4 with NaOH. […]
The single-cell high-impedance sealing and whole-cell pattern formation processes were all automatically performed by a Qpatch instrument. […] This voltage stimulation was applied every 15 seconds, and recorded for 2 minutes. The extracellular solution was then given, and recorded for 5 minutes. […]
Assay data were analyzed by GraphPad Prism 5.0 software. […]
The inhibitory effect of Cisapride with multiple concentrations on the hERG channel was measured as a positive control.

rat plasma albumin = assay: Plasma protein binding (ultracentrifugation), rat; format: in vitro ADME; further: tested at 0.2 µM
Protocol: (§1) The binding degree of the assay compound to human/mouse/rat/canine/monkey plasma albumin was studied.
(§2) • 1) Matrix preparation: on the day of the assay, plasma was thawed in cold water and centrifuged at 3220 rpm for 5 min to remove all clots. The pH of the resulting plasma was measured and adjusted to 7.4±0.1 using 1% phosphoric acid or IN sodium hydroxide as needed. • 2) Dilution procedure for the assay compound: the assay compound was dissolved in dimethyl sulfoxide (DMSO) to prepare stock solutions with concentrations of 10 mM and 2 mM, respectively. A 40 μM working solution was prepared by diluting 2 μL of stock solution (2 mM) with 98 μL of DMSO. A 400 μM working solution of the control compound was prepared by diluting 10 μL of stock solution with 240 μL of DMSO. The working solution of the compound (5 μL) was mixed well with a blank matrix (995 μL) at a ratio of 1:200 to prepare a loading matrix.
(§3) • a) An equal volume of 30 μL of loading matrix (n=2) was transferred to a sample collection plate to prepare a time 0 (TO) sample for residue determination. The sample was immediately matched with the corresponding blank buffer to a final volume of 60 μL, and the volume ratio of plasma to buffer in each well was 1:1. […] The mixture was centrifuged at 4000 rpm for 20 min and 100 μL of supernatant from each sample was analyzed by LC-MS/MS.

canine plasma albumin = assay: Plasma protein binding (ultracentrifugation), canine; format: in vitro ADME; further: tested at 0.2 µM
Protocol: as §1, §2, §3

monkey plasma albumin = assay: Plasma protein binding (ultracentrifugation), monkey; format: in vitro ADME; further: tested at 0.2 µM
Protocol: as §1, §2, §3

Chain of hERG potassium channel (Q12809 whole entry): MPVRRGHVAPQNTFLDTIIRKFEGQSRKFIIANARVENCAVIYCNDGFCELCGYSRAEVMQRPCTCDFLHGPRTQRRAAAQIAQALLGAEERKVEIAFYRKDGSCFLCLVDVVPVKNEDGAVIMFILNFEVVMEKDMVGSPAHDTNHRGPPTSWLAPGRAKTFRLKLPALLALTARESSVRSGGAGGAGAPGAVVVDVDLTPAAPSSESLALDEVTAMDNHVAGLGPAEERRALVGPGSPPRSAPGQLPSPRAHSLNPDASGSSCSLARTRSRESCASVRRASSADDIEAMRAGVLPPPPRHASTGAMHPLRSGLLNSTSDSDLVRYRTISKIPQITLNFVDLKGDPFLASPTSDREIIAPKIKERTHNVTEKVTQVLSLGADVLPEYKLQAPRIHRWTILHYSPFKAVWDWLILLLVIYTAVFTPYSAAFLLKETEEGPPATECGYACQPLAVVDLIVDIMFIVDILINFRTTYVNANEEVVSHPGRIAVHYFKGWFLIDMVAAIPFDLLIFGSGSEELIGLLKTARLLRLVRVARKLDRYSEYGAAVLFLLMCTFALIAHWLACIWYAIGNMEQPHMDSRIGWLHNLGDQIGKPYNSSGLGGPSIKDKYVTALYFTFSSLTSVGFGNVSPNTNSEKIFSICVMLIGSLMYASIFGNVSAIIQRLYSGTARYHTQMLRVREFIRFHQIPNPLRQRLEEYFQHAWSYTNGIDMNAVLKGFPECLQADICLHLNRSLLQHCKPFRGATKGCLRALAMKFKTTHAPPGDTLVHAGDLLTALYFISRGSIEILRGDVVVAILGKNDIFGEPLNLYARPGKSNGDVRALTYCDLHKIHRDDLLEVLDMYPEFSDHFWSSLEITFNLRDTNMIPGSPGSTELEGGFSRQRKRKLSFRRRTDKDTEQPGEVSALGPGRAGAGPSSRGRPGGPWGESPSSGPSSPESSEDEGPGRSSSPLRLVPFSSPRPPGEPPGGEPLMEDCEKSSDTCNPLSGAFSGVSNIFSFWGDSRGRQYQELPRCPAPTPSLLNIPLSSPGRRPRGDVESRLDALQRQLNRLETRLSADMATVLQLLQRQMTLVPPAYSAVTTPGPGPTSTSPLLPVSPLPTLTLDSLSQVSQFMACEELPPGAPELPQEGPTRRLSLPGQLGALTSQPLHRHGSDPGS

## Cc1cccc(CN2C(=O)c3nc(-c4nc(Nc5ccnn5C)ncc4C)sc3C23COC3)n1 [WX001]
hERG potassium channel
  IC50: > 40 µM
Rat plasma albumin
  Plasma protein binding rate (unbound %): 8.4%
Canine plasma albumin
  Plasma protein binding rate (unbound %): 14.3%
Monkey plasma albumin
  Plasma protein binding rate (unbound %): 14.2%
